Laboratory results taken from patent publication US20240264169A1, “METHOD FOR THE QUANTIFICATION OF THE ACTIVATION STATE OF G-PROTEIN-COUPLED RECEPTORS IN A HUMAN BIOLOGICAL SAMPLE” (ALDA S.R.L., priority 2021, published 2024).
“And” between values parts separate entries of the source, which are not always exact repeats. Identical values can stand only once.

Tests used:
Format in all cases: cell-based
human neutrophils [1] = assay: Neutrophil morphology upon fixation (spherical vs polarized)
Description: (§1) Precisely this last aspect, however, offers added value in monitoring the interaction of the receptor with β-Arrestin. Indeed, in this scenario, the maximum interaction value between these two proteins is recorded 8 to 12 minutes after the interleukin stimulus. The measurement of the activation state occurs within a defined time window, the beginning of which coincides with the time of sampling (FIG. 1a). By subjecting the blood aliquots to a stasis under controlled conditions, it is possible to obtain a homogeneous activation state among the neutrophils in the control sample, estimated by quantifying the amount of receptor that is bound to β-Arrestin at the time of fixation. […] The amount of activation is obtained by difference with the basal state, which corresponds to the amount of desensitized receptor found after the same time interval in each experiment. The correlation between FRET signal intensity and morphology (FIG. 4c) allows us to assess the effectiveness of the inhibitor: the change in morphology from spherical to polarized in the presence of high FRET, indicates the persistence of a G-protein pathway-mediated signal. In contrast, the presence of high FRET in perfectly spherical cells (indistinguishable from those observed in the control aliquot), is an indication of high desensitization of the receptor by β-Arrestins, and thus the inhibitor is able to promote deactivation of the receptor, with the effect of a drastic reduction in G-protein-mediated signaling.
Thus, the treatment with allosteric inhibitors generates high receptor desensitization. However, if IL-8 treatment is conducted in the presence of allosteric inhibitor, neutrophil morphology is maintained spherical even under stimulated conditions. […] In the quiescent or competitive inhibition condition, the neutrophil consistently retains a spherical morphology.
The most striking difference between the condition in which the sample is treated with IL-8 and the condition in which the sample is pretreated with inhibitor and then subjected to the IL-8 stimulus concerns morphology. […]

human neutrophils [2] = assay: Cell count after treatment of blood sample
Source text: Another aspect that strongly distinguishes the sample activated with IL8 alone and the IL8_+_navarixin sample is the cell count after treatment.

CXCR1//ArrB interaction = target: T1, CXCR1//ArrB interaction (Homo sapiens, UniProt P25024); assay: FRET assay (intensity-based acceptor photobleaching) of CXCR1//β-Arrestin interaction on neutrophils
T1 construct: expression and localization of endogenous CXCR1 protein; endogenous in cells; host or cells: human neutrophils in venous blood aliquots
T1 sequence (P25024 1-350): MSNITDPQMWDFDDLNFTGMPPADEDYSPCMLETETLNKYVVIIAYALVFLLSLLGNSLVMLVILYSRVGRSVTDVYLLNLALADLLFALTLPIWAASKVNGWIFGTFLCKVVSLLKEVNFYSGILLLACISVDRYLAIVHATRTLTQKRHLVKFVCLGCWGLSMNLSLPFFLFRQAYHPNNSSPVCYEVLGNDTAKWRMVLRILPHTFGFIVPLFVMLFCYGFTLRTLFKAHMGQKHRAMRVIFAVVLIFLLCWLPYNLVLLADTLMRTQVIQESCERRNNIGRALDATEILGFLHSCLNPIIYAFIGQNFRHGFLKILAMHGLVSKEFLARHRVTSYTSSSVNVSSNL
Source text: Next, the measured FRET efficiency is related to the abundance of the interaction between the donor and acceptor probe within each pixel of the image. Detection of the FRET signal consists of a precise estimate of the fluorescent emission (FD) intensity or emission decay rate (<τ>) of the donor probe. The quantization of FD in a biological sample appears to be inexpensive in terms of complexity and cost of the instrumentation required for analysis. […] Below is the formula used to calculate the FRET (pixel by pixel) efficiency shown in the images reported in this study:
as §1, with “signal.” for “signal. In contrast, the presence of high FRET in perfectly spherical cells (indistinguishable from those observed in the control aliquot), is an indication of high desensitization of the receptor by β-Arrestins, and thus the inhibitor is able to promote deactivation of the receptor, with the effect of a drastic reduction in G-protein-mediated signaling.”
Next, the FRET assay for measuring the CXCR1//ArrB interaction on neutrophils was repeated, operating in triplicate (FIG. 4). A first control sample, CTRL-DMSO, corresponds to the sample set at 30 minutes; this time is required for neutrophils to return to a resting state after mechanical activation due to handling. […] Values reported refer to the measurements on 15 neutrophil cells of donor fluorophore de-quenching following acceptor photo-bleaching, obtained by the INTENSITY-BASED ACCEPTOR PHOTOBLEACHING approach (FIG. 7 and Table 1).
The CTRL of each triplicate consists of a sister sample subjected to the same treatment conditions unless drug addition. Exclusively for the time zero sample, fixation was carried out at about one minute after sampling, and the analysis reported high FRET probably due to heterologous desensitization. For all remaining samples, fixation was performed at 30 minutes after sampling, an interval of time during which the drug was allowed to act, directly added to the tube of each treated sample.

[3] = target: T2, CXCR1-βArrestin2 interaction (Homo sapiens, UniProt P25024); assay: FRET-FLIM donor probe lifetime measurement, anti-CXCR1 donor / anti-βArrestin2 acceptor, neutrophils; details: Reparixin 100 μg/ml; one value per cell (3 cells); Levenberg-Marquardt fitting; Control 2.57-2.63, Donor only 2.64-2.67
T2 construct: expression and localization of endogenous CXCR1 protein; endogenous in cells; host or cells: human neutrophils in venous blood aliquots
T2 sequence (P25024 1-350): T1 sequence (P25024 1-350)
Source text: The fitting model used is bi-exponential and the measurement is repeated for each individual neutrophil: a global decay curve consisting of the summation of the curves recorded in all the pixels that make up the analyzed cell is generated for each of them. The rate of decay of the fluorescence intensity of the total donor population (bound and unbound receptor) is of the exponential type and follows the trend described by the formula:
The decay acquired in each region of interest (ROI) corresponds to the lifetime obtained from the cumulative histogram consisting of the summation of all pixels contained in the ROL The histogram is interpolated by bi-exponential fitting, and the lifetime calculated on the two components (A1 and A2) with the following equation:
The expression used to calculate the FRET efficiency by using the FLIM technique is as follows:
where tD is the absolute donor lifetime, measured in a sample containing only the donor probe, and tD-A is the donor lifetime in a sample subjected to the same condition, in which both donor and acceptor probes are present.
To correctly interpret the following graph (FIG. 8b), remember that the presence of interaction induces a lowering of the donor probe lifetime; this lowering is quantified by the slope of the decay curve, which corresponds to the donor probe lifetime (τ). The value of τ can be derived numerically from the nonlinear fitting of the decay curve.
The Levenberg-Marquardt algorithm, which is based on the method of least squares, was used for nonlinear fitting of the recorded decay curves.
The values of r extrapolated from the nonlinear fitting by using the Levenberg-Marquardt algorithm were further verified using the maximum likelihood estimation (MLE) method, which allows for greater accuracy in evaluating the parameters obtained from the statistical distribution of photonic phenomena (such as the decay of a fluorophore's emission), as these phenomena are generally governed by a Poissonian distribution. The values shown in the table are those calculated exclusively by the Levenberg-Marquardt algorithm.

CXCR1-GaI interaction = target: T3, CXCR1-GaI interaction (Homo sapiens, UniProt P25024); assay: FRET-FLIM analysis of the CXCR1-GaI interaction pair; details: in the presence of IL-8 (10 nM)
T3 construct: expression and localization of endogenous CXCR1 protein; endogenous in cells; host or cells: human neutrophils
T3 sequence (P25024 1-350): T1 sequence (P25024 1-350)
Description: The receptor activation status was measured through the quantification of CXCR1-GaI and CXCR1-Arrestin interactions. […] In this circumstance, the minimum value of FRET is assumed, which serves as an internal control.

[4] = IL-8 treatment in the presence of allosteric inhibitor
[5] = REPARIXIN 100 ugmL-1, 30 min, 15 neutrophil cells, each column one of triplicate samples

FRET (donor de-quenching after acceptor photobleaching), Mean (CXCR1//ArrB interaction; [5])	FRET (donor de-quenching after acceptor photobleaching), Median (CXCR1//ArrB interaction; [5])	FRET versus control (interaction with β-Arrestins) (CXCR1//ArrB interaction; combined treatment IL-8 + allosteric inhibitor)	FRET in analyzed cells (CXCR1//ArrB interaction; highest concentration of Reparixin (100 μg/mL), 30 min)	τ (donor probe lifetime) [3]	time of maximum receptor-β-Arrestin interaction after stimulus (CXCR1//ArrB interaction; after the interleukin stimulus)	signal lifetime versus non-activated control (CXCR1-GaI interaction)	Molecule	neutrophil morphology (human neutrophils [1]; [4])	number of cells compared to control (human neutrophils [2]; sample pretreated with inhibitor, then stimulated with IL-8)	FRET in analyzed cells (CXCR1//ArrB interaction; Reparixin 40 ug/ml, two of the three samples)	amount of receptor in the desensitized state (in complex with b-Arrestin2) (CXCR1//ArrB interaction; IL-8 stimulation, in presence and absence of allosteric modulator)	neutrophil morphology (human neutrophils [1]; IL-8 treatment, inhibitor absent)	cells found at the time of fixation relative to control (human neutrophils [2]; sample stimulated with IL-8 alone)
–	–	–	–	–	–	–	CC[C@@H](Nc1c(Nc2cccc(C(=O)N(C)C)c2O)c(=O)c1=O)c1ccc(C)o1 [Navarixin]	spherical	same number of cells	–	–	–	–
32.35 and 27.67 and 32.60	38.96 and 21.92 and 35.03	higher than control	high in many cells	2.05 and 2.12 and 2.1	–	–	CC(C)Cc1ccc([C@@H](C)C(=O)NS(C)(=O)=O)cc1 [Reparixin]	spherical	–	many cells with FRET values equal to the control	–	–	–
–	–	–	–	–	8 to 12 min	decrease in signal lifetime	interleukin-8 [IL-8]	–	–	–	significant increase	polarized	about 20%
